The source of these data is DBAASP.

Common to all, as to assay: ≥ marks a high value that may be exact or a test limit, other limits are often not marked, values filed in µg/mL are converted to µM
In assay [1] the test system is Pseudomonas aeruginosa ATCC 27853.
Assay [2] deals with Klebsiella pneumoniae ATCC 700603.
The test system of assay [3] is Staphylococcus aureus ATCC 33591.
The subject of assay [4] is Staphylococcus aureus ATCC 29213.
For assay [5], the system named is Escherichia coli ATCC 25922.
Assay [6] relates to Staphylococcus aureus ATCC 700699.
For assay [7], the system named is Salmonella enterica subsp. enterica serovar Pullorum C79-13.
Assay [8] has as its system Salmonella enterica subsp. enterica serovar Typhimurium C77-31.
The test system of assay [9] is Bacillus subtilis CMCC 63501.
Assay [10] has as its system Staphylococcus epidermidis ATCC 12228.
For assay [11], the system named is Enterococcus faecalis ATCC 29212.
The test system of assay [12] is Bacillus subtilis ATCC 6051.
The test system of assay [13] is Escherichia coli NEB5alpha.
In the next assay the test system is Escherichia coli UB1005.
The subject of assay [14] is Staphylococcus aureus ATCC 25923.
Assay [15] concerns Pseudomonas aeruginosa PAO1.
The test system of a further assay is Escherichia coli BL21AI.
In assay [16] the test system is Micrococcus luteus ATCC 10240.
The subject of assay [17] is Salmonella enterica subsp. enterica serovar Typhimurium ATCC 14028.

≈ marks a conversion by molar mass, not a printed value.

For orientation: MIC means the lowest concentration found to suppress growth. A high value points to a less susceptible organism. Regarding `CC[C@H](C)[C@H](NC(=O)[C@H](CC(=O)O)NC(=O)[C@H](CCCCN)NC(=O)[C@H](C)NC(=O)[C@H](C)NC(=O)CNC(=O)[C@H](CCCCN)NC(=O)[C@H](CC(C)C)NC(=O)[C@@H](NC(=O)[C@H](CC(=O)O)NC(=O)[C@@H](NC(=O)[C@@H](NC(=O)CN)C(C)C)C(C)C)[C@@H](C)CC)C(=O)N[C@@H](C)C(=O)NCC(=O)N[C@@H](Cc1cnc[nH]1)C(=O)N[C@@H](CC(C)C)C(=O)N[C@@H](C)C(=O)N[C@@H](CO)C(=O)N[C@@H](CCCCN)C(=O)N[C@H](C(=O)N[C@@H](CCSC)C(=O)N[C@@H](C)C(=O)N[C@@H](CCCCN)C(=O)N[C@@H](CC(C)C)C(N)=O)C(C)C` [GVVDILKGAAKDIAGHLASKVMAKL], the MIC in assay [1] was over 100 µM; in assay [2], 100 µM (≈ 251 µg/mL); in assay [3], at least 100 µM; in assay [4], over 100 µM; in assay [5] it was 50 µM (≈ 125 µg/mL); in assay [6] it was at least 100 µM.
In the case of `CC[C@H](C)[C@H](NC(=O)[C@H](CC(=O)O)NC(=O)[C@H](CCCCN)NC(=O)[C@H](C)NC(=O)[C@H](C)NC(=O)CNC(=O)[C@H](CCCCN)NC(=O)[C@H](CC(C)C)NC(=O)[C@@H](NC(=O)[C@H](CC(=O)O)NC(=O)[C@@H](NC(=O)[C@@H](NC(=O)CN)C(C)C)C(C)C)[C@@H](C)CC)C(=O)N[C@@H](C)C(=O)NCC(=O)N[C@@H](Cc1cnc[nH]1)C(=O)N[C@@H](CC(C)C)C(=O)N[C@@H](C)C(=O)N[C@@H](CO)C(=O)N[C@@H](CCCCN)C(=O)N[C@H](C(=O)N[C@@H](CCSC)C(=O)N[C@@H](CC(N)=O)C(=O)N[C@@H](CCCCN)C(=O)N[C@@H](C)C(N)=O)C(C)C` [GVVDILKGAAKDIAGHLASKVMNKA], the MIC in assay [1] was over 100 µM; in assay [2] it was over 100 µM; in assay [3], at least 100 µM; in [4] it was over 100 µM; in [5], over 100 µM; in [6] it was at least 100 µM.
Turning to `CC[C@H](C)[C@H](NC(=O)[C@H](CC(=O)O)NC(=O)[C@H](CCCCN)NC(=O)[C@H](C)NC(=O)[C@H](C)NC(=O)CNC(=O)[C@H](CCCCN)NC(=O)[C@H](CC(C)C)NC(=O)[C@@H](NC(=O)[C@H](CC(=O)O)NC(=O)[C@@H](NC(=O)[C@@H](NC(=O)CN)C(C)C)C(C)C)[C@@H](C)CC)C(=O)N[C@@H](C)C(=O)NCC(=O)N[C@@H](Cc1cnc[nH]1)C(=O)N[C@@H](CC(C)C)C(=O)N[C@@H](CC(C)C)C(=O)N[C@@H](CO)C(=O)N[C@@H](CCCCN)C(=O)N[C@H](C(=O)N[C@@H](CCSC)C(=O)N[C@@H](CC(N)=O)C(=O)N[C@@H](CCCCN)C(=O)N[C@@H](CC(C)C)C(N)=O)C(C)C` [GVVDILKGAAKDIAGHLLSKVMNKL], the MIC in assay [1] was 100 µM (≈ 259 µg/mL); in [2], 50 µM (≈ 130 µg/mL); in [3] it was 25 µM (≈ 64.8 µg/mL); in assay [4] it was 100 µM (≈ 259 µg/mL); in assay [5], 12.5 µM (≈ 32.4 µg/mL); in assay [6], at least 100 µM.
As to `CC[C@H](C)[C@H](N)C(=O)N[C@@H](CCCN=C(N)N)C(=O)N[C@@H](CS)C(=O)N[C@@H](CCCN=C(N)N)C(=O)N[C@@H](CCCN=C(N)N)C(=O)N[C@@H](CCCN=C(N)N)C(=O)N[C@@H](Cc1ccccc1)C(=O)N[C@@H](CS)C(=O)N[C@@H](CCCN=C(N)N)C(=O)N[C@H](C(N)=O)[C@@H](C)CC` [IRCRRRFCRI], the MIC in assay [7] is 16 µM (≈ 22 µg/mL); in assay [1], 64 µM (≈ 88.2 µg/mL); in [8], at least 128 µM; in [4], 64 µM (≈ 88.2 µg/mL); in assay [9], 4 µM (≈ 5.51 µg/mL); in assay [5], 8 µM (≈ 11 µg/mL). In addition, the MIC in assay [10] and in assay [11] was 64 µM (≈ 88.2 µg/mL) in each case.
As for `CC[C@H](C)[C@H](NC(=O)[C@H](C)NC(=O)CNC(=O)[C@H](CCCCN)NC(=O)[C@H](CCC(=O)O)NC(=O)[C@H](CCC(=O)O)NC(=O)[C@H](CC(=O)O)NC(=O)[C@H](CCC(=O)O)NC(=O)[C@H](CC(=O)O)NC(=O)[C@H](CCCN=C(N)N)NC(=O)CNC(=O)[C@H](CCC(N)=O)NC(=O)[C@H](CC(C)C)NC(=O)[C@@H](N)CCCCN)C(=O)N[C@H](C(=O)N[C@@H](CCCCN)C(=O)N[C@H](C(=O)N[C@@H](CCCCN)C(=O)NCC(=O)NCC(=O)N[C@@H](CC(C)C)C(=O)O)C(C)C)C(C)C` [KLQGRDEDEEKGAIVKVKGGL], the figures for the MIC in [12] and in [13] were at least 1000 µM and at least 500 µM, respectively.
Taken in the same sequence, the figures for `CC[C@H](C)[C@H](NC(=O)[C@H](C)NC(=O)CNC(=O)[C@H](CCCCN)NC(=O)[C@H](CCC(=O)O)NC(=O)[C@H](CCC(=O)O)NC(=O)[C@H](CC(=O)O)NC(=O)[C@H](CCC(=O)O)NC(=O)[C@H](CC(N)=O)NC(=O)[C@H](CCCN=C(N)N)NC(=O)CNC(=O)[C@H](CCC(N)=O)NC(=O)[C@H](CC(C)C)NC(=O)[C@@H](N)CCCCN)C(=O)N[C@H](C(=O)N[C@@H](CCCCN)C(=O)N[C@H](C(=O)N[C@@H](CCCCN)C(=O)NCC(=O)NCC(=O)N[C@@H](CC(C)C)C(=O)O)C(C)C)C(C)C` [KLQGRNEDEEKGAIVKVKGGL] were at least 1000 µM and at least 1000 µM.
`CC(C)C[C@H](NC(=O)[C@H](CCCN=C(N)N)NC(=O)[C@H](CC(C)C)NC(=O)[C@H](CC(C)C)NC(=O)[C@H](CCC(N)=O)NC(=O)[C@H](CCC(=O)O)NC(=O)[C@H](CC(C)C)NC(=O)[C@H](Cc1ccc(O)cc1)NC(=O)CNC(=O)[C@@H](N)CC(C)C)C(=O)O` [LGYLEQLLRL]: the MIC in assay [13] was at least 1360 µM.
Consider `CC[C@H](C)[C@H](NC(=O)[C@H](CCCN=C(N)N)NC(=O)[C@H](CCCN=C(N)N)NC(=O)[C@@H]1CCCN1C(=O)[C@@H]1CCCN1C(=O)[C@H](CCCN=C(N)N)NC(=O)[C@@H]1CCCN1C(=O)[C@H](CCCN=C(N)N)NC(=O)[C@@H]1CCCN1C(=O)[C@H](CC(C)C)NC(=O)[C@H](Cc1ccc(O)cc1)NC(=O)[C@@H]1CCCN1C(=O)[C@@H]1CCCN1C(=O)[C@H](CCCCN)NC(=O)[C@H](CC(=O)O)NC(=O)[C@@H](N)C(C)C)C(=O)N[C@@H](Cc1ccc(O)cc1)C(=O)N[C@@H](CC(N)=O)C(=O)N[C@@H](Cc1cnc[nH]1)C(N)=O` [VDKPPYLPRPRPPRRIYNH], for which the MIC stood at 2.11 µM (≈ 5 µg/mL) against Escherichia coli UB1005; 38.2 µM (≈ 90.5 µg/mL) in assay [14]; 54 µM (≈ 128 µg/mL) in assay [15]; 6.75 µM (≈ 16 µg/mL) against Escherichia coli BL21AI; 6.75 µM (≈ 16 µg/mL) in assay [16].
`NC(=O)[C@H](Cc1c[nH]c2ccccc12)NC(=O)[C@H](CCCN=C(N)N)NC(=O)[C@H](Cc1c[nH]c2ccccc12)NC(=O)[C@H](CCCN=C(N)N)NC(=O)[C@H](CS)NC(=O)[C@H](Cc1ccccc1)NC(=O)[C@H](CCCN=C(N)N)NC(=O)[C@H](CCCN=C(N)N)NC(=O)[C@H](CCCN=C(N)N)NC(=O)[C@H](CS)NC(=O)[C@H](CCCN=C(N)N)NC(=O)[C@H](Cc1c[nH]c2ccccc12)NC(=O)[C@H](CCCN=C(N)N)NC(=O)[C@@H](N)Cc1c[nH]c2ccccc12` [WRWRCRRRFCRWRW]: the MIC in assay [7] is 2 µM (≈ 4.42 µg/mL); in assay [1], 8 µM (≈ 17.7 µg/mL); in [8] it was 4 µM (≈ 8.83 µg/mL); in assay [4] it was 4 µM (≈ 8.83 µg/mL); in [9] it was 1 µM (≈ 2.21 µg/mL); in assay [5], 4 µM (≈ 8.83 µg/mL). The MIC in assay [10] and in assay [11] was 2 µM (≈ 4.42 µg/mL) in each case.
As for `CC(C)[C@H](NC(=O)[C@H](CCCCN)NC(=O)[C@H](C)NC(=O)[C@H](C)NC(=O)[C@H](C)NC(=O)[C@H](CCCCN)NC(=O)[C@H](C)NC(=O)[C@H](C)NC(=O)[C@H](C)NC(=O)[C@H](CCCCN)NC(=O)[C@@H](NC(=O)[C@@H](N)Cc1c[nH]c2ccccc12)C(C)C)C(=O)N[C@@H](Cc1c[nH]c2ccccc12)C(N)=O` [WVKAAAKAAAKVW], the MIC in [7] is at least 64 µM; in the assay with Escherichia coli UB1005 it was at least 128 µM; in assay [1], over 128 µM; in [4], over 128 µM; in assay [9], at least 128 µM; in assay [5], 32 µM (≈ 44.8 µg/mL). The MIC is over 128 µM in [10], over 128 µM in assay [17] and 64 µM (≈ 89.5 µg/mL) in [11].
